Results as given in patent US20240398817A1, “CARDIO- AND RENOSAFE ANTIDIABETIC THERAPY” (priority 2018, published 2024).

System: patients with type 2 diabetes at high vascular risk
Assay: Cardiovascular and Renal Outcomes Trial: linagliptin 5 mg once daily vs placebo on top of standard of care
Type: in vivo
Conditions: for 3P-MACE: hazard ratio (95% CI) vs placebo: Cox regression
Procedure: The effect of linagliptin on cardiovascular risk in adult patients with type 2 diabetes mellitus and with increased CV risk evidenced by a history of established macrovascular or renal disease (e.g. as defined herein) was evaluated in a multi-center, multi-national, randomized, double-blind parallel group trial. The trial compared the risk of experiencing a major adverse cardiovascular event (MACE) between linagliptin and placebo when these were added to and used concomitantly with standard of care treatments for diabetes (HbA1c), cardiovascular risk factors and renal disease.
The primary endpoint in this trial was the time to first occurrence of three point (3P) MACE. A major adverse cardiac event was defined as a cardiovascular death or a nonfatal myocardial infarction (MI) or a nonfatal stroke. The statistical analysis plan tested for non-inferiority for the occurrence of (3P) MACE. […] The secondary endpoint was a renal composite, defined as renal death or sustained end stage renal disease or sustained decrease of 40% or more in eGFR.
Type 2 diabetes patient with insufficient glycemic control (naïve or pre-treated with any antidiabetic background medication, excluding treatment with GLP-1 receptor agonists, DPP-4inhibitors or SGLT-2 inhibitors if ≥consecutive 7 days, e.g. having HbA1c 6.5-10%), and high risk of cardiovascular events, e.g. defined by: • albuminuria (micro or macro) and previous macrovascular disease: e.g. defined according to Condition I as indicated below; • and/or • impaired renal function: e.g. as defined according to Condition II as indicated below;
Background and aims: People with type 2 diabetes (T2D) are at increased risk for hospitalization for heart failure (hHF), particularly in the setting of concomitant cardiovascular (CV) and/or kidney disease. […] Here we present analyses of HF outcomes with the DPP-4 inhibitor linagliptin (LINA) vs. placebo (PBO) from a Cardiovascular and Renal Outcomes Trial assessing cardiovascular safety and renal microvascular outcome in patients with type 2 diabetes at high vascular risk, a large CV outcomes trial that enrolled participants with T2D at high risk for hHF due to concomitant CV and/or chronic kidney disease. Materials and methods: People with T2D and concomitant CV and/or kidney disease were randomized to receive LINA 5 mg, or PBO once daily (1:1), on top of standard of care. All hHF, CV outcomes, and deaths were centrally adjudicated, with individual and composite HF-related outcomes analyses comparing LINA vs. placebo. Investigator-reported HF-related adverse events, whether or not confirmed by adjudication, were also analyzed. A Cox proportional hazards model adjusting for region and history of HF was used for analyses of first events. Recurrent hHF events were analyzed using a negative binomial model.
Methods: The present Cardiovascular and Renal Outcomes Trial randomized people with T2D and i) concomitant CV disease with UACR >30 mg/g or ii) prevalent CKD (i.e. GFR <45 ml/min/1.73m2 and/or UACR >200 mg/g) to receive the DPP-4 inhibitor linagliptin (5 mg) or placebo once daily in a double-blind fashion. The primary CV endpoint was 3P-MACE, with a key secondary kidney endpoint (adjudicated ESKD, renal death, or sustained ≥40% decrease in eGFR from baseline) and other renal outcomes (including albuminuria and eGFR slope) also assessed. Subgroups were assessed by baseline kidney function (eGFR ≥/<45 ml/min/1.73m2and eGFR ≥/<30, 45 or 60 ml/min/1.73m2).
Adults with type 2 diabetes, HbA1c 6.5-10.0% inclusive, and high CV risk were eligible for inclusion. […] Macrovascular disease eligibility criteria was based on documented and confirmed history of myocardial infarction, coronary artery disease, stroke, carotid artery disease, or peripheral artery disease. Participants with end-stage kidney disease (ESKD), defined as eGFR <15 or requiring maintenance dialysis, were excluded.

[1] = all patients, listed as Lingagliptin
[2] = all patients, listed as linagliptin
[3] = both, human, in vivo, 5 mg, 1.9 years
[4] = eGFR ≥30 to <45 mL/min/1.73 m^2

`CC#CCn1c(N2CCC[C@@H](N)C2)nc2c1c(=O)n(Cc1nc(C)c3ccccc3n1)c(=O)n2C` [Linagliptin, 1-[(4-methyl-quinazolin-2-yl)methyl]-3-methyl-7-(2-butyn-1-yl)-8-(3-(R)-amino-piperidin-1-yl)-xanthine] was tested, and the “3P-MACE: rate/100 patient-years” value (all patients) was 4.69 per 100 patient-years, the “All-cause death: rate per 100 person-years” value (all patients) was 4.69 per 100 person-years and the “All-cause mortality: incidence rate per 1000 PY” value (all patients) was 46.9 per 1000 patient years. For the same compound, the “All-cause mortality: number of subjects” value (all patients) was 367, the “Hospitalization for heart failure: incidence rate/1000 patient-years” value (all patients) was 27.7 per 1000 patient years and the “Hospitalization for heart failure: number of patients” value (all patients) was 209. For the same compound, the “Hospitalization for heart failure: rate/100 patient-years” value (all patients) was 2.77 per 100 patient-years, the “Renal composite (40% eGFR): incidence rate per 1000 PY” value (all patients) was 48.9 per 1000 patient years and the “Renal composite (40% eGFR): rate/100 patient-years” value (all patients) was 4.89 per 100 patient-years. For the same compound, the “Renal composite (renal death, sustained ESRD, sustained decrease of 40% or more in eGFR): number of subjects” value (all patients) was 327, the “Renal death or sustained ESKD: number of patients” value (all patients) was 136 and the “Renal death or sustained ESKD: patients, %” value (all patients) was “(3.9) %”. For the same compound, the “Renal death or sustained ESKD: rate/1000 patient-years” value (all patients) was 17.8 per 1000 patient years, the “Renal death, or sustained ESKD: rate/100 patient-years” value (all patients) was 1.78 per 100 patient-years and the “Renal death, sustained ESKD, or sustained ≥ doubling of se-creatinine from baseline: n” value (all patients) was 219. For the same compound, the “Renal death, sustained ESKD, or ≥ doubling of se-creatinine: %” value (“Renal death … of se-creatinine: %” below) (all patients) was “(6.3) %”, the “Renal death, sustained ESKD, or ≥ doubling of se-creatinine: rate/100 patient-years” value (all patients) was 3.21 per 100 patient-years and the “3P-MACE: hazard ratio (95% CI) vs placebo” value (all patients) was 1.02. For the same compound, the “3P-MACE: hazard ratio (95% CI) vs placebo” value [1] was 1.02 (0.89. 1.17), the “3P-MACE (CV death, non-fatal MI, non-fatal stroke): number of subjects with event” value (all patients, n = 3494) was 434 and the “Hospitalization for heart failure: hazard ratio (95% CI) vs placebo” value (all patients, listed as LINA) was 0.90. The “Renal composite (40% eGFR): hazard ratio (CI) vs placebo” value (all patients, listed as LINA) was 1.04, the “3P-MACE: subjects with event, %” value [1] was 12.4% and the “Renal composite (40% eGFR): hazard ratio (CI) vs placebo” value [1] was 1.04 (0.89, 1.22). The “Renal composite (40% eGFR): subjects, %” value [1] was 9.4%, the “3P-MACE: rate/100 patient-years” value [2] was 5.77 per 100 patient-years and the “3P-MACE: subjects with event, %” value [2] was 12.4%. For the same compound, the “All-cause mortality: hazard ratio (95% CI) vs placebo” value [2] was 0.98, the “All-cause mortality: subjects, %” value [2] was 10.5% and the “Hospitalization for heart failure: hazard ratio (95% CI) vs placebo” value [2] was 0.90. For the same compound, the “Hospitalization for heart failure: patients, %” value [2] was 6.0%, the “Renal composite (40% eGFR): hazard ratio (CI) vs placebo” value [2] was 1.04 and the “Renal composite (40% eGFR): subjects, %” value [2] was 9.4%. The “Renal death or sustained ESKD: hazard ratio (95% CI) vs placebo” value [2] was 0.87, the “Renal death or sustained ESKD: patients, %” value [2] was 3.9% and the “Fatal cases of pancreatitis: %” value [3] was 0.1%. For the same compound, the “Fatal cases of pancreatitis: n” value [3] was 2, the “3-point MACE: hazard ratio vs placebo” value (eGFR <30 mL/min/1.73 m^2) was 0.97 and the “3-point MACE: patients with event/patients analyzed” value (eGFR <30 mL/min/1.73 m^2) was 101/516. For the same compound, the “Key secondary kidney outcome: hazard ratio vs placebo” value (eGFR <30 mL/min/1.73 m^2) was 1.05, the “Key secondary kidney outcome: patients with event/patients analyzed” value (eGFR <30 mL/min/1.73 m^2) was 133/516 and the “3P-MACE: %” value (eGFR < 45 (n = 3000)) was “(16.6) %”. For the same compound, the “3P-MACE: HR (95% CI) vs placebo” value (eGFR < 45 (n = 3000)) was 1.02 (0.85, 1.21), the “3P-MACE: n” value (eGFR < 45 (n = 3000)) was 250 and the “3P-MACE: rate/100 patient-years” value (eGFR < 45 (n = 3000)) was 7.61 per 100 patient-years. For the same compound, the “Hospitalized heart failure: %” value (eGFR < 45 (n = 3000)) was “(8.9) %”, the “Hospitalized heart failure: HR (95% CI) vs placebo” value (eGFR < 45 (n = 3000)) was 0.87 (0.69, 1.10) and the “Hospitalized heart failure: n” value (eGFR < 45 (n = 3000)) was 135. For the same compound, the “Hospitalized heart failure: rate/100 patient-years” value (eGFR < 45 (n = 3000)) was 4.13 per 100 patient-years, the “Key secondary kidney endpoint: %” value (eGFR < 45 (n = 3000)) was “(14.7) %” and the “Key secondary kidney endpoint: HR (95% CI) vs placebo” value (eGFR < 45 (n = 3000)) was 0.97 (0.80, 1.17). The “Key secondary kidney endpoint: n” value (eGFR < 45 (n = 3000)) was 222, the “Key secondary kidney endpoint: rate/100 patient-years” value (eGFR < 45 (n = 3000)) was 7.83 per 100 patient-years and the “Renal death, or sustained ESKD: %” value (eGFR < 45 (n = 3000)) was “(8.2) %”. The “Renal death, or sustained ESKD: HR (95% CI) vs placebo” value (eGFR < 45 (n = 3000)) was 0.82 (0.64, 1.04), the “Renal death, or sustained ESKD: n” value (eGFR < 45 (n = 3000)) was 124 and the “Renal death, or sustained ESKD: rate/100 patient-years” value (eGFR < 45 (n = 3000)) was 3.78 per 100 patient-years. The “Renal death … of se-creatinine: %” value (eGFR < 45 (n = 3000)) was “(10.9) %”, the “Renal death, sustained ESKD, or ≥ doubling of se-creatinine: HR (95% CI) vs placebo” value (eGFR < 45 (n = 3000)) was 0.87 (0.70, 1.07) and the “Renal death, sustained ESKD, or ≥ doubling of se-creatinine: n” value (eGFR < 45 (n = 3000)) was 165. The “Renal death, sustained ESKD, or ≥ doubling of se-creatinine: rate/100 patient-years” value (eGFR < 45 (n = 3000)) was 5.69 per 100 patient-years, the “Risk of composite microvascular outcome 1 vs placebo, in words” value (eGFR decrease 50%) was “significantly reduced” and the “Risk of composite microvascular outcome 2 and 3 vs placebo, in words” value (eGFR decrease of 40% and 30%) was “also significantly reduced”. The “3-point MACE: hazard ratio vs placebo” value [4] was 1.07, the “3-point MACE: patients with event/patients analyzed” value [4] was 149/994 and the “Key secondary kidney outcome: hazard ratio vs placebo” value [4] was 0.95. The “Key secondary kidney outcome: patients with event/patients analyzed” value [4] was 89/994, the “3P-MACE: %” value (eGFR ≥ 45 (n = 3979)) was “(9.3) %” and the “3P-MACE: HR (95% CI) vs placebo” value (eGFR ≥ 45 (n = 3979)) was 1.03 (0.84, 1.26). For the same compound, the “3P-MACE: n” value (eGFR ≥ 45 (n = 3979)) was 184, the “3P-MACE: rate/100 patient-years” value (eGFR ≥ 45 (n = 3979)) was 4.34 per 100 patient-years and the “Hospitalized heart failure: %” value (eGFR ≥ 45 (n = 3979)) was “(3.7) %”. The “Hospitalized heart failure: HR (95% CI) vs placebo” value (eGFR ≥ 45 (n = 3979)) was 0.97 (0.70, 1.34), the “Hospitalized heart failure: n” value (eGFR ≥ 45 (n = 3979)) was 74 and the “Hospitalized heart failure: rate/100 patient-years” value (eGFR ≥ 45 (n = 3979)) was 1.73 per 100 patient-years. For the same compound, the “Key secondary kidney endpoint: %” value (eGFR ≥ 45 (n = 3979)) was “(5.3) %”, the “Key secondary kidney endpoint: HR (95% CI) vs placebo” value (eGFR ≥ 45 (n = 3979)) was 1.19 (0.89, 1.58) and the “Key secondary kidney endpoint: n” value (eGFR ≥ 45 (n = 3979)) was 105. The “Key secondary kidney endpoint: rate/100 patient-years” value (eGFR ≥ 45 (n = 3979)) was 2.72 per 100 patient-years, the “Renal death, or sustained ESKD: %” value (eGFR ≥ 45 (n = 3979)) was “(0.6) %” and the “Renal death, or sustained ESKD: HR (95% CI) vs placebo” value (eGFR ≥ 45 (n = 3979)) was 1.50 (0.61, 3.67). The “Renal death, or sustained ESKD: n” value (eGFR ≥ 45 (n = 3979)) was 12, the “Renal death, or sustained ESKD: rate/100 patient-years” value (eGFR ≥ 45 (n = 3979)) was 0.28 per 100 patient-years and the “Renal death … of se-creatinine: %” value (eGFR ≥ 45 (n = 3979)) was “(2.7) %”. The “Renal death, sustained ESKD, or ≥ doubling of se-creatinine: HR (95% CI) vs placebo” value (eGFR ≥ 45 (n = 3979)) was 1.08 (0.73, 1.59).
